Assay results: patent US10829490B2, “Substituted dihydropyrazino[1 ′,2′:1,5]pyrrolo[2,3-d]pyrimidine-based antiproliferative agents” (G1 Therapeutics, Inc., priority 2016, dated 2020)

Assays:
Type in all cases: biochemical
CDK2/CyclinA = CDK2/CyclinA (Homo sapiens (Human), UniProt P24941); assay: CDK2/CycA kinase assay, microfluidic kinase detection (Caliper, Nanosyn); details: 12-point dose-response, ATP at Km (50 μM), enzyme 0.2 nM, incubation 3 hr; read-out: CDK2/Cyclin A
Procedure: (§1) Selected compounds disclosed herein were tested in CDK4/cyclinD1, CDK2/CycA and CDK2/cyclinE kinase assays by Nanosyn (Santa Clara, Calif.) to determine their inhibitory effect on these CDKs. The assays were performed using microfluidic kinase detection technology (Caliper Assay Platform). The compounds were tested in 12-point dose-response format in singlicate at Km for ATP. Phosphoacceptor substrate peptide concentration used was 1 μM for all assays and Staurosporine was used as the reference compound for all assays. Specifics of each assay are as described below:
CDK2/CyclinA: Enzyme concentration: 0.2 nM; ATP concentration: 50 μM; Incubation time: 3 hr.

CDK4/CyclinD1 = CDK4/CyclinD1 (Homo sapiens (Human), UniProt P11802); assay: CDK4/cyclinD1 kinase assay, microfluidic kinase detection (Caliper, Nanosyn); details: 12-point dose-response, ATP at Km (200 μM), enzyme 1 nM, incubation 10 hr; read-out: CDK4/Cyclin D1
Procedure: as §1
CDK4/CyclinD1: Enzyme concentration: 1 nM; ATP concentration: 200 μM; Incubation time: 10 hr.

CDK9/Cyclin T = CDK9/Cyclin T (Homo sapiens (Human), UniProt P50750); assay: CDK9/Cyclin T kinase assay (Biological Table 3)
CDK2/CyclinE = CDK2/CyclinE (Homo sapiens (Human), UniProt P24941); assay: CDK2/cyclinE kinase assay, microfluidic kinase detection (Caliper, Nanosyn); details: 12-point dose-response, ATP at Km (100 μM), enzyme 0.28 nM, incubation 1 hr; read-out: CDK2/Cyclin E
Procedure: as §1
CDK2/CyclinE: Enzyme concentration: 0.28 nM; ATP concentration: 100 μM; Incubation time: 1 hr.

CDK6/Cyclin D3 = CDK6/Cyclin D3 (Homo sapiens (Human), UniProt Q00534); assay: CDK6/Cyclin D3 kinase assay (Biological Table 3)
Procedure: [Worded in the source for another target; this target is reported under the same test.] as §1, with “assays.” for “assays. Specifics of each assay are as described below:”

CDK5/p25 = CDK5/p25 (Homo sapiens (Human), UniProt Q00535); assay: CDK5/p25 kinase inhibition (Biological Table 2)
CDK9/CycT = CDK9/CycT (Homo sapiens (Human), UniProt P50750); assay: CDK9/CycT kinase inhibition (Biological Table 2)
CDK2/CycE = CDK2/CycE (Homo sapiens (Human), UniProt P24941); assay: CDK2/CycE kinase inhibition (Biological Table 1)
CDK5/p35 = CDK5/p35 (Homo sapiens (Human), UniProt Q00535); assay: CDK5/p35 kinase inhibition (Biological Table 1)
CDK4/CycD = CDK4/CycD (Homo sapiens (Human), UniProt P11802); assay: CDK4/CycD kinase inhibition (Biological Table 1)
CDK2/CycA = CDK2/CycA (Homo sapiens (Human), UniProt P24941); assay: CDK2/CycA kinase inhibition (Biological Table 1)
CDK6/CycD3 = CDK6/CycD3 (Homo sapiens (Human), UniProt Q00534); assay: CDK6/CycD3 kinase inhibition (Biological Table 1)
CDK7/CycH/MAT1 = CDK7/CycH/MAT1 (Homo sapiens (Human), UniProt P50613); assay: CDK7/CycH/MAT1 kinase inhibition (Biological Table 2)
Sequence of CDK7/CycH/MAT1 (P50613 whole entry): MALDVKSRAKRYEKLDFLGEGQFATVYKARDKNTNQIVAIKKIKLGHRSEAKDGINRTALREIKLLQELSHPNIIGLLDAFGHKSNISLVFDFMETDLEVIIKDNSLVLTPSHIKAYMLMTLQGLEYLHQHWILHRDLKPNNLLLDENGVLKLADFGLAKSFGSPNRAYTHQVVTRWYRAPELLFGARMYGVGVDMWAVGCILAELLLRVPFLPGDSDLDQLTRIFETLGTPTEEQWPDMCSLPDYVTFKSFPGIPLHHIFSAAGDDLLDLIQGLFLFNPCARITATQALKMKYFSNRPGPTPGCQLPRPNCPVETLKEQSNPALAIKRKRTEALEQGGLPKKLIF
Sequence of CDK7/CycH/MAT1 (P51946 whole entry partner): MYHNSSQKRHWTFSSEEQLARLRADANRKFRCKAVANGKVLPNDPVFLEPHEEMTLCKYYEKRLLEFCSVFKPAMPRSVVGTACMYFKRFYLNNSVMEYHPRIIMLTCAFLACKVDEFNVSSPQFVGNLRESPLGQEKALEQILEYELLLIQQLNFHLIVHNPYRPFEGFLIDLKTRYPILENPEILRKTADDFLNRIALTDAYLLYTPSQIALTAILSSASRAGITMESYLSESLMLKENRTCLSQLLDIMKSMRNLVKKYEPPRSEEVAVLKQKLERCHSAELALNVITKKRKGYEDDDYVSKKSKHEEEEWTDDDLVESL
Sequence of CDK7/CycH/MAT1 (P51948 whole entry partner): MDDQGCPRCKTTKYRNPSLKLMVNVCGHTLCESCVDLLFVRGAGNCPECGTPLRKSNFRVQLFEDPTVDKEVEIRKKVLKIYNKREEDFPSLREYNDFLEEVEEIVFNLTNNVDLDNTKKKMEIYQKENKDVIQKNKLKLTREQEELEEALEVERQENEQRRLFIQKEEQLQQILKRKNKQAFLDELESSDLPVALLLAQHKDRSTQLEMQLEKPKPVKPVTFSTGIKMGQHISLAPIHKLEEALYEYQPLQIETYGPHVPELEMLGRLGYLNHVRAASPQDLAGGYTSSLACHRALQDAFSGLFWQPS

Sequence of CDK6/CycD3 (Q00534 whole entry): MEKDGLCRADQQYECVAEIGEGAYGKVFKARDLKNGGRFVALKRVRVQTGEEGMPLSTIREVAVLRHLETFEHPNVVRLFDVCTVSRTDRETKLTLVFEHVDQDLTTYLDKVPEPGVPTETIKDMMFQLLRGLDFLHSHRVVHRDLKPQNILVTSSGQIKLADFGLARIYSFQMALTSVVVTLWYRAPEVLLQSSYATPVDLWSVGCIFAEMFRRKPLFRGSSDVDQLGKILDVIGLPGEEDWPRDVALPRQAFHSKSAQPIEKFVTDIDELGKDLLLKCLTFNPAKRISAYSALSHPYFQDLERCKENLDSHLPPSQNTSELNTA
Sequence of CDK6/CycD3 (P30281 whole entry partner): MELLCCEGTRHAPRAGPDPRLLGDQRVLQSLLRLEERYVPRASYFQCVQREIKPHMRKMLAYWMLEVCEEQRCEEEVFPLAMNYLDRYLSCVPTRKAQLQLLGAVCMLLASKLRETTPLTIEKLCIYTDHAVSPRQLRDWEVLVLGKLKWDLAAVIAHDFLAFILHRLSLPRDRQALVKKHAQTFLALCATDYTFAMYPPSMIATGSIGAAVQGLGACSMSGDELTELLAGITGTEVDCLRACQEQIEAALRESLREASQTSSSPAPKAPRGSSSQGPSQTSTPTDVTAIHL
Sequence of CDK6/Cyclin D3 (Q00534 whole entry): as the sequence (Q00534 whole entry) above
Sequence of CDK6/Cyclin D3 (P30281 whole entry partner): as the sequence (P30281 whole entry partner) above
Sequence of CDK5/p25 (Q00535 whole entry): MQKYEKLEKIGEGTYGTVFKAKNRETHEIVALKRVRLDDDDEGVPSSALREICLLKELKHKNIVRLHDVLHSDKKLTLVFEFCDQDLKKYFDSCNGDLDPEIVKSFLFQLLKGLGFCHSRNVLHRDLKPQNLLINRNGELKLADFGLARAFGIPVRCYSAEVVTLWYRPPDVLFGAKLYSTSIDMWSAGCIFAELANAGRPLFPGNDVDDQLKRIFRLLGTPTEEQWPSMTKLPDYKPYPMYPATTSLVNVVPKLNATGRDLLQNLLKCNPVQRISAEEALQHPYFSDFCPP
Sequence of CDK5/p35 (Q00535 whole entry): as above
Sequence of CDK5/p35 (Q15078 whole entry partner): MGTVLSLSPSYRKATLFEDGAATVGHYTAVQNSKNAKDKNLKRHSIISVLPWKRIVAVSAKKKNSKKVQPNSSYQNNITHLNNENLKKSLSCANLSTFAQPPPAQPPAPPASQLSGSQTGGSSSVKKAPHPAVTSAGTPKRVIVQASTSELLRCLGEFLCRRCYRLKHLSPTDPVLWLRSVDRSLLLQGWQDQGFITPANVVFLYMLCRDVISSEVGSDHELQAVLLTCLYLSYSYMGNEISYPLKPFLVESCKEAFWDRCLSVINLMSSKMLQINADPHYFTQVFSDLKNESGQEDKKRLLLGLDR
Sequence of CDK9/Cyclin T (P50750 whole entry): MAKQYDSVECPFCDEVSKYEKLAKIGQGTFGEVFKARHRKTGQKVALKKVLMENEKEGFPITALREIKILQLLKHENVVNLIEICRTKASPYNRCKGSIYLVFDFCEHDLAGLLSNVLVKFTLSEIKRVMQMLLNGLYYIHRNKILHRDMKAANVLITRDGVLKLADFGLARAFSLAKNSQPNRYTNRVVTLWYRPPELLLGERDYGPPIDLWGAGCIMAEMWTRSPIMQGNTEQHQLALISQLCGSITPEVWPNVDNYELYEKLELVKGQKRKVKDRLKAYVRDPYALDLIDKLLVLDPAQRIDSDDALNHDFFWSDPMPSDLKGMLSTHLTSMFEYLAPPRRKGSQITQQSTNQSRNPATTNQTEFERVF
Sequence of CDK9/Cyclin T (O60563 whole entry partner): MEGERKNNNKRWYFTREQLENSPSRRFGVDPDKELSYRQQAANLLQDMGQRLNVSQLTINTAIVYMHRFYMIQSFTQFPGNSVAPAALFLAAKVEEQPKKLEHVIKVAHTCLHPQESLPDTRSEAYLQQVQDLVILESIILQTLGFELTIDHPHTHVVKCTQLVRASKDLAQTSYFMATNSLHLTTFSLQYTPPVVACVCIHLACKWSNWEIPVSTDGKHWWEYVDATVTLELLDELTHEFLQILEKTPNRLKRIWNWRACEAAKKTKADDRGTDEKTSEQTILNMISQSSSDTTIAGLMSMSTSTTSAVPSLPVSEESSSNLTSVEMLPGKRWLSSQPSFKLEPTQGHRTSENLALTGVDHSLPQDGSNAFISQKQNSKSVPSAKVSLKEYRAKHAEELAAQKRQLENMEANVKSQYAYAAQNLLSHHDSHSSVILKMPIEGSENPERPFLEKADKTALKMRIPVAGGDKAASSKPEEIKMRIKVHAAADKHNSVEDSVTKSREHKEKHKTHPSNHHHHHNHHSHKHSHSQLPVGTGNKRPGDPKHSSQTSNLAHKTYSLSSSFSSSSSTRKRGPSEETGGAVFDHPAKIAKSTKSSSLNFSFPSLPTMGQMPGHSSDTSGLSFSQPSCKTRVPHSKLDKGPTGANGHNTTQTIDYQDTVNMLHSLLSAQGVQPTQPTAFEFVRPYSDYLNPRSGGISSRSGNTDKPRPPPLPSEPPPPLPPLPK
Sequence of CDK9/CycT (P50750 whole entry): as the sequence (P50750 whole entry) above
Sequence of CDK9/CycT (O60563 whole entry partner): as the sequence (O60563 whole entry partner) above
Sequence of CDK4/CyclinD1 (P11802 whole entry): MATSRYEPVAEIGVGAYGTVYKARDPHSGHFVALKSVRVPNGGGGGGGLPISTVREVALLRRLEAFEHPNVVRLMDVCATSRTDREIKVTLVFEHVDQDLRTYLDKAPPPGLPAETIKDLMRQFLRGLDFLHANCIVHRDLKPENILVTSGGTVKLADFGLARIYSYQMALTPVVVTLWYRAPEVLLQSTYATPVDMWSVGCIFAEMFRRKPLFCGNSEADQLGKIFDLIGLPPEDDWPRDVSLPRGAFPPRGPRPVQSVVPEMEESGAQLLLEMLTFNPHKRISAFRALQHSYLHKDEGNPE
Sequence of CDK4/CyclinD1 (P24385 whole entry partner): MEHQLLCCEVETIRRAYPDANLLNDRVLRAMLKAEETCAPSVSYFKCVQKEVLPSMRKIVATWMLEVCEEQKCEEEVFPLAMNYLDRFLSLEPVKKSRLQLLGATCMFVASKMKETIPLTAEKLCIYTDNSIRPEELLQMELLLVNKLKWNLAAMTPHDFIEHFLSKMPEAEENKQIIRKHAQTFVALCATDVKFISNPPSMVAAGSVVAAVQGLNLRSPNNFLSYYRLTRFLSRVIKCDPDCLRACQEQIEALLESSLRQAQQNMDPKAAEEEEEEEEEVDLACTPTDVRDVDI
Sequence of CDK4/CycD (P11802 whole entry): as the sequence (P11802 whole entry) above
Sequence of CDK4/CycD (P24385 whole entry partner): as the sequence (P24385 whole entry partner) above

Compound | IC50 (CDK2/CyclinA) | IC50 (CDK4/CyclinD1) | IC50 (CDK9/Cyclin T) | IC50 (CDK2/CyclinE) | IC50 (CDK6/Cyclin D3) | IC50 (CDK5/p25) | IC50 (CDK9/CycT) | IC50 (CDK2/CycE) | IC50 (CDK5/p35) | IC50 (CDK4/CycD) | IC50 (CDK2/CycA) | IC50 (CDK6/CycD3) | IC50 (CDK7/CycH/MAT1)
CN1CCN(c2ccc(Nc3ncc4cc5n(c4n3)C3(C=NC5)CCCCC3)nc2)CC1 [Compound 31, N-(5-(4-Methylpiperazin-1-yl)pyridin-2-yl)-6′H-spiro[cyclohexane-1,9′-pyrazino[1′,2′:1,5]pyrrolo[2,3-d]pyrimidin]-2′-amine] | 0.1 µM | 0.0006 µM | 0.04 µM | 0.04 µM | 0.001 µM | – | – | – | – | – | – | – | –
CN1CCN(c2ccc(Nc3ncc4cc5n(c4n3)C3(CCCCC3)Cn3ccnc3-5)nc2)CC1 [Compound 25, N-(5-(4-Methylpiperazin-1-yl)pyridin-2-yl)-5′H -spiro[cyclohexane-1,6′-imidazo[2″,1″:3′,4′]pyrazino[1′,2′:1,5]pyrrolo[2,3-d]pyrimidin]-9′-amine] | 59 µM | 0.03 µM | 6.3 µM | 99 µM | 0.1 µM | – | – | – | – | – | – | – | –
CN1CCN(c2ccc(Nc3ncc4c(n3)N3C(CC4)C(=O)NCC3(C)C)nc2)CC1 (stereo not drawn) [Compound 2, 10,10-dimethyl-2-((5-(4-methylpiperazin-1-yl)pyridin-2-yl)amino)-6,6a,9,10-tetrahydro-5H-pyrazino[1′,2′:1,6]pyrido[2,3-d]pyrimidin-7(8H)-one] | – | – | – | – | – | > 100 µM | > 100 µM | > 100 µM | > 100 µM | > 100 µM | > 100 µM | > 100 µM | –
CN1CCN(c2ccc(Nc3ncc4cc5n(c4n3)C3(CCCCC3)C(=O)NC5)nc2)CC1 [Compound 33, 2′-((5-(4-Methylpiperazin-1-yl)pyridin-2-yl)amino)-6′,7′-dihydro-8′H-spiro[cyclohexane-1,9′-pyrazino [1′,2′:1,5]pyrrolo[2,3-d]pyrimidin]-8′-one] | 2 µM | 0.006 µM | 3 µM | 4 µM | 0.02 µM | – | – | – | – | – | – | – | –
CN1CCN(c2ccc(Nc3ncc4c(n3)N3C(=NCC35CCCCC5)C(=O)N4)nc2)CC1 [Compound 27, 2′-((5-(4-Methylpiperazin-1-yl)pyridin-2-yl)amino)-5′H-spiro[cyclohexane-1,9′-imidazo[2,1-h]pteridin]-6′(8′H)-one] | > 100 µM | 9.4 µM | > 100 µM | > 100 µM | 21 µM | – | – | – | – | – | – | – | –
CN1CCN(c2ccc(Nc3ncc4c(n3)N3C(=NCCC35CCCCC5)C=C4)nc2)CC1 [Compound 9, N-(5-(4-methylpiperazin-1-yl)pyridin-2-yl)-8′,9′-dihydrospiro[cyclohexane-1,10′-pyrido[1,6-a:2,3-d′]dipyrimidin]-2′-amine] | – | – | – | – | – | > 100 µM | > 100 µM | > 100 µM | > 100 µM | 2.6 µM | > 100 µM | 1.8 µM | > 100 µM
CN1CCN(c2ccc(Nc3ncc4c(n3)N3CCCCC3CC4=O)nc2)CC1 (stereo not drawn) [Compound 7, 2-((5-(4-methylpiperazin-1-yl)pyridin-2-yl)amino)-6,6a,7,8,9,10-hexahydro-5H-pyrimido[5,4-c]quinolizin-5-one] | – | – | – | – | – | > 100 µM | > 100 µM | > 100 µM | > 100 µM | 4.7 µM | > 100 µM | 1.8 µM | > 100 µM
CN1CCN(c2ccc(Nc3ncc4c(n3)N3C(CC4=O)C(=O)NCC34CCCCC4)nc2)CC1 (stereo not drawn) [Compound 3] | – | – | – | – | – | > 100 µM | > 100 µM | > 100 µM | > 100 µM | > 100 µM | > 100 µM | > 100 µM | > 100 µM
CN1CCN(c2ccc(Nc3ncc4c(n3)N3C(CC4=O)C(=O)NCC3(C)C)nc2)CC1 (stereo not drawn) [Compound 1, 10,10-dimethyl-2-((5-(4-methylpiperazin-1-yl)pyridin-2-yl)amino)-6,6a,9,10-tetrahydro-5H-pyrazino[1′,2′:1,6]pyrido[2,3-d]pyrimidine-5,7(8H)-dione] | – | – | – | – | – | > 100 µM | > 100 µM | > 100 µM | > 100 µM | 8.06 µM | > 100 µM | 30.6 µM | > 100 µM
CN1CCN(c2ccc(Nc3ncc4c(n3)N3C(CC4=O)C(=O)NCC34CCCC4)nc2)CC1 (stereo not drawn) [Compound 5, 2′-((5-(4-methylpiperazin-1-yl)pyridin-2-yl)amino)-6′,6a′,8′,9′-tetrahydrospiro[cyclopentane-1,10′-pyrazino[1′,2′:1,6]pyrido[2,3-d]pyrimidine]-5′,7′-dione] | – | – | – | – | – | > 100 µM | > 100 µM | > 100 µM | > 100 µM | > 100 µM | > 100 µM | > 100 µM | > 100 µM

Next, values leading:

IC50 (CDK2/CyclinA) | IC50 (CDK4/CyclinD1) | IC50 (CDK9/Cyclin T) | IC50 (CDK2/CyclinE) | IC50 (CDK6/Cyclin D3) | IC50 (CDK5/p25) | IC50 (CDK9/CycT) | IC50 (CDK2/CycE) | IC50 (CDK5/p35) | IC50 (CDK4/CycD) | IC50 (CDK2/CycA) | IC50 (CDK6/CycD3) | IC50 (CDK7/CycH/MAT1) | Compound
2 µM | 0.09 µM | 0.05 µM | 5 µM | 0.5 µM | – | – | – | – | – | – | – | – | O=C1NCC2(CCCCC2)n2c1cc1cnc(N[C@H]3CC[C@@H](N4CCN(CC5CC5)CC4)CC3)nc12 [Compound 40, 2′-(((1S,4S)-4-(4-(Cyclopropylmethyl)piperazin-1-yl)cyclohexyl)amino)-7′,8′-dihydro-6′H-spiro [cyclohexane-1,9′-pyrazino[1′,2′:1,5]pyrrolo[2,3-d]pyrimidin]-6′-one]
19 µM | 0.06 µM | 0.2 µM | 33 µM | 0.09 µM | – | – | – | – | – | – | – | – | CO[C@H]1CC[C@]2(CC1)CNC(=O)c1cc3cnc(Nc4ccc(N5CCN(C)CC5)cn4)nc3n12 [Compound 39, (1R,4R)-4-Methoxy-2′-((5-(4-methylpiperazin-1-yl)pyridin-2-yl)amino)-7′,8′-dihydro-6′H-spiro [cyclohexane-1,9′-pyrazino[1′,2′:1,5]pyrrolo [2,3-d]pyrimidin]-6′-one]
5 µM | 0.007 µM | 0.2 µM | 14 µM | 0.01 µM | – | – | – | – | – | – | – | – | CO[C@H]1CC[C@@]2(CC1)CNC(=O)c1cc3cnc(Nc4ccc(N5CCN(C)CC5)cn4)nc3n12 [Compound 38, (1S,4S)-4-Methoxy-2′-((5-(4-methylpiperazin-1-yl)pyridin-2-yl)amino)-7′,8′-dihydro-6′H-spiro[cyclohexane-1,9′-pyrazino[1′,2′:1,5]pyrrolo [2,3-d]pyrimidin]-6′-one]
0.1 µM | 0.004 µM | 0.002 µM | 0.3 µM | 0.03 µM | – | – | – | – | – | – | – | – | O=C1NCC2(CCCCC2)n2c1cc1cnc(N[C@H]3CC[C@H](N4CCN(CC5CC5)CC4)CC3)nc12 [Compound 36, 2′-(((1R,4R)-4-(4-(Cyclopropylmethyl)piperazin-1-yl)cyclohexyl)amino)-7′,8′-dihydro-6′H-spiro [cyclohexane-1,9′-pyrazino[1′,2′:1,5]pyrrolo[2,3-d]pyrimidin]-6′-one]
14 µM | 0.02 µM | 0.4 µM | 23 µM | 0.02 µM | – | – | – | – | – | – | – | – | CN1CCN(c2ccc(Nc3ncc4cc5n(c4n3)C3(CCOCC3)CNC5=O)nc2)CC1 [Compound 34, 2′-((5-(4-Methylpiperazin-1-yl)pyridin-2-yl)amino)-2,3,5,6,7′,8′-hexahydro-6′H-spiro [pyran-4,9′-pyrazino [1′,2′:1,5]pyrrolo [2,3-d]pyrimidin]-6′-one]
0.02 µM | 0.006 µM | 0.003 µM | 0.4 µM | 0.04 µM | – | – | – | – | – | – | – | – | CN1CCN([C@H]2CC[C@H](Nc3ncc4cc5n(c4n3)C3(CCCCC3)CNC5=O)CC2)CC1 [Compound 37, 2′-(((1R,4R)-4-(4-Methylpiperazin-1-yl)cyclohexyl)amino)-7′,8′-dihydro-6′H-spiro[cyclohexane-1,9′-pyrazino[1′,2′:1,5]pyrrolo[2,3-d]pyrimidin]-6′-one]
2 µM | 0.14 µM | 0.07 µM | 6 µM | 0.8 µM | – | – | – | – | – | – | – | – | CN1CCN([C@H]2CC[C@@H](Nc3ncc4cc5n(c4n3)C3(CCCCC3)CNC5=O)CC2)CC1 [Compound 41, 2′-(((1S,4S)-4-(4-Methylpiperazin-1-yl)cyclohexyl)amino)-7′,8′-dihydro-6′H-spiro[cyclohexane-1,9′-pyrazino[1′,2′:1,5]pyrrolo[2,3-d]pyrimidin]-6′-one]
